pEC50, pKi: −log10 of the molar value. Where a SMILES comes first, the peptide text is derived from it.
Assays:
Melanocortin receptor 4 = Melanocortin receptor 4 (Mus musculus, UniProt P56450); assay: Agonist activity to the mouse Melanocortin-4 receptor (mMC4R); assay type: functional
Melanocortin receptor 5 = Melanocortin receptor 5 (Mus musculus, UniProt P41149); assay: Agonist activity towards mouse Melanocortin-5 receptor (mMC5R); assay type: functional
Melanocortin receptor 3 [1] = molecular target: T1, Melanocortin receptor 3 (Mus musculus, UniProt P33033); assay: Agonist activity to the mouse Melanocortin-3 receptor (mMC3R); assay type: functional
[2] = molecular target: Melanocyte-stimulating hormone receptor (Mus musculus, UniProt Q01727); assay: Agonist activity to the mouse Melanocortin-1 receptor (mMC1R); assay type: functional
Melanocortin receptor 3 [3] = molecular target: T1, Melanocortin receptor 3; assay: Binding constant (Ki) at mouse Melanocortin-3 receptor
Melanocortin receptor 3 [4] = molecular target: T1, Melanocortin receptor 3; assay: Agonist activity of compound towards mouse Melanocortin-3 receptor (mMC3R); partial agonist; assay type: functional; settings: read-out: pA2 (converted)

Sequence of Melanocyte-stimulating hormone receptor (Q01727 whole entry): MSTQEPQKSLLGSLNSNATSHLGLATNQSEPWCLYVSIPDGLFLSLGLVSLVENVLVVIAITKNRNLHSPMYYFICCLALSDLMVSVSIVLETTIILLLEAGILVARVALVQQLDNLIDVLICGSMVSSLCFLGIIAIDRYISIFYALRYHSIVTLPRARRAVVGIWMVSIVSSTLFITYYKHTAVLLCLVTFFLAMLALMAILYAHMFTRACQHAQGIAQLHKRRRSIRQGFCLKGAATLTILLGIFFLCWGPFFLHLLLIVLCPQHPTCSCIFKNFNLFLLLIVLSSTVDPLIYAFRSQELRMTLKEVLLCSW
T1 sequence (P33033 whole entry): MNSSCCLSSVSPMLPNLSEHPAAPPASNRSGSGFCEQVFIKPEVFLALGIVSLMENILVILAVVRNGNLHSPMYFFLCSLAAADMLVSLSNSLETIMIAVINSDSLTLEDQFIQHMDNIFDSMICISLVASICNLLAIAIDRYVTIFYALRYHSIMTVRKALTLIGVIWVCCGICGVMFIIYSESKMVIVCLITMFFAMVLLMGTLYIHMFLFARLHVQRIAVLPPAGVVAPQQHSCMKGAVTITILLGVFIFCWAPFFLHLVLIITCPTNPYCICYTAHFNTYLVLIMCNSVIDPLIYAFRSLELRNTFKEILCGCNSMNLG
Sequence of Melanocortin receptor 4 (P56450 whole entry): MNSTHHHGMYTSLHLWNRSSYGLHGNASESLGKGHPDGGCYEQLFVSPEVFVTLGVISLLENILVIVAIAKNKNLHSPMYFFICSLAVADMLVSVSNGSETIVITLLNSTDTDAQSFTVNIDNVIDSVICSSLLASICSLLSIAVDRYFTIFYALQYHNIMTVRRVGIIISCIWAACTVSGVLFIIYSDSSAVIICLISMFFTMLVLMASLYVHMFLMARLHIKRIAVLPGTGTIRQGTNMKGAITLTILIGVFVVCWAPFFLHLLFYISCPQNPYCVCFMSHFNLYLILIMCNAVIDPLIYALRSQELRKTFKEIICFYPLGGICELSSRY
Sequence of Melanocortin receptor 5 (P41149 whole entry): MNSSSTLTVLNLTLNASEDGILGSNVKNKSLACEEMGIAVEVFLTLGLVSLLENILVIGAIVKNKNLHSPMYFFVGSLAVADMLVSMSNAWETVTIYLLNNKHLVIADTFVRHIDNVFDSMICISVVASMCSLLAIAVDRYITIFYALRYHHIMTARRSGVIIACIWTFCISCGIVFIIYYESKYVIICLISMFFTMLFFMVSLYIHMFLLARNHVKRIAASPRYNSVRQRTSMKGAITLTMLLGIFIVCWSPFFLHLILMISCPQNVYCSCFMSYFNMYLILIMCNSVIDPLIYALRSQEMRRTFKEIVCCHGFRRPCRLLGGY

| pEC50 (Melanocortin receptor 4) | pEC50 (Melanocortin receptor 5) | pEC50 (Melanocortin receptor 3 [1]) | pEC50 [2] | pKi (Melanocortin receptor 3 [3]) | Kb (Melanocortin receptor 3 [4]) | Structure (SMILES) |
| --- | --- | --- | --- | --- | --- | --- |
| < 4.00 | < 4.00 | < 4.00 | 4.72 |  |  | CC(=O)N[C@@H](Cc1cnc[nH]1)C(=O)N[C@H](C(=O)N[C@@H](CCCNC(=N)N)C(=O)N[C@@H](Cc1c[nH]c2ccccc12)C(N)=O)C(c1ccccc1)c1ccccc1 |
| 7.16 | 7.94 | 5.69 | 7.55 |  |  | CC(=O)N[C@@H](Cc1c[nH]cn1)C(=O)N[C@H](Cc1ccc(-c2ccccc2)cc1)C(=O)N[C@@H](CCCN=C(N)N)C(=O)N[C@@H](Cc1c[nH]c2ccccc12)C(N)=O |
| 8.68 |  |  |  |  |  | CC(=O)N[C@@H](Cc1c[nH]cn1)C(=O)N[C@@H](Cc1ccccc1)C(=O)N[C@@H](CCCN=C(N)N)C(=O)N[C@@H](Cc1c[nH]c2ccccc12)C(N)=O |
| < 4.00 | 4.49 | < 4.00 | 4.21 |  |  | CC(=O)N[C@@H](Cc1cnc[nH]1)C(=O)N[C@@H](Cc1ccc(O)cc1)C(=O)N[C@@H](CCCNC(=N)N)C(=O)N[C@@H](Cc1c[nH]c2ccccc12)C(N)=O (Ac-HYRW-NH2) |
| < 4.00 | 4.44 | < 4.00 | 4.64 |  |  | CC(=O)N[C@@H](Cc1cnc[nH]1)C(=O)N[C@@H](Cc1cccnc1)C(=O)N[C@@H](CCCNC(=N)N)C(=O)N[C@@H](Cc1c[nH]c2ccccc12)C(N)=O |
| 5.30 | 5.37 | < 4.00 | 5.82 |  |  | CC(=O)N[C@@H](Cc1c[nH]cn1)C(=O)N[C@@H](C(=O)N[C@@H](CCCN=C(N)N)C(=O)N[C@@H](Cc1c[nH]c2ccccc12)C(N)=O)C(c1ccccc1)c1ccccc1 |
| 5.15 | 5.68 | 5.11 | 5.24 |  |  | CC(=O)N[C@@H](Cc1c[nH]cn1)C(=O)NC1(C(=O)N[C@@H](CCCN=C(N)N)C(=O)N[C@@H](Cc2c[nH]c3ccccc23)C(N)=O)CCc2ccccc2C1 (stereo in doubt; 26) |
| < 4.00 | < 4.00 | < 4.00 | 4.39 |  |  | CC(=O)N[C@@H](Cc1c[nH]cn1)C(=O)N1Cc2ccccc2C[C@@H]1C(=O)N[C@@H](CCCN=C(N)N)C(=O)N[C@@H](Cc1c[nH]c2ccccc12)C(N)=O |
| < 4.00 | 4.95 | < 4.00 | 4.82 |  |  | CC(=O)N[C@@H](Cc1cnc[nH]1)C(=O)N[C@@H](Cc1cccc2ccccc12)C(=O)N[C@@H](CCCNC(=N)N)C(=O)N[C@@H](Cc1c[nH]c2ccccc12)C(N)=O |
| < 4.00 |  | < 4.00 | 4.77 |  |  | CC(=O)N[C@@H](Cc1c[nH]cn1)C(=O)N[C@@H](C(=O)N[C@@H](CCCN=C(N)N)C(=O)N[C@@H](Cc1c[nH]c2ccccc12)C(N)=O)c1ccccc1 |
| 5.62 | 6.20 | 4.47 | 5.49 |  |  | CC(=O)N[C@@H](Cc1cnc[nH]1)C(=O)N[C@H](Cc1ccc(O)cc1)C(=O)N[C@@H](CCCNC(=N)N)C(=O)N[C@@H](Cc1c[nH]c2ccccc12)C(N)=O |
| 4.95 | 5.55 | < 4.00 | 5.20 |  |  | CC(=O)N[C@@H](Cc1cnc[nH]1)C(=O)N[C@H](CCc1ccccc1)C(=O)N[C@@H](CCCNC(=N)N)C(=O)N[C@@H](Cc1c[nH]c2ccccc12)C(N)=O |
| < 4.00 | < 4.00 | < 4.00 | 4.52 |  |  | CC(=O)N[C@@H](Cc1cnc[nH]1)C(=O)N[C@@H](C)C(=O)N[C@@H](CCCNC(=N)N)C(=O)N[C@@H](Cc1c[nH]c2ccccc12)C(N)=O (Ac-HARW-NH2) |
|  | 5.26 | < 4.00 | 4.97 |  |  | CC(=O)N[C@@H](Cc1cnc[nH]1)C(=O)N[C@@H](Cc1ccc(-c2ccccc2)cc1)C(=O)N[C@@H](CCCNC(=N)N)C(=O)N[C@@H](Cc1c[nH]c2ccccc12)C(N)=O |
| < 4.00 | 4.67 | < 4.00 | 4.27 |  |  | CC(=O)N[C@@H](Cc1c[nH]cn1)C(=O)N1Cc2ccccc2C[C@H]1C(=O)N[C@@H](CCCN=C(N)N)C(=O)N[C@@H](Cc1c[nH]c2ccccc12)C(N)=O |
|  | 5.13 | < 4.00 | 4.66 |  |  | CC(=O)N[C@@H](Cc1c[nH]cn1)C(=O)N[C@@H](Cc1ccc2ccccc2c1)C(=O)N[C@@H](CCCN=C(N)N)C(=O)N[C@@H](Cc1c[nH]c2ccccc12)C(N)=O |
| 4.39 | 5.40 | 4.36 | 4.83 |  |  | CC(=O)N[C@@H](Cc1cnc[nH]1)C(=O)N[C@H](C(=O)N[C@@H](CCCNC(=N)N)C(=O)N[C@@H](Cc1c[nH]c2ccccc12)C(N)=O)c1ccccc1 |
|  | 7.46 |  | 6.78 | 6.53 | 0.295 µM | CC(=O)N[C@@H](Cc1cnc[nH]1)C(=O)N[C@H](Cc1ccc2ccccc2c1)C(=O)N[C@@H](CCCNC(=N)N)C(=O)N[C@@H](Cc1c[nH]c2ccccc12)C(N)=O |
| < 4.00 | 5.16 | < 4.00 | 4.60 |  |  | CC(=O)N[C@@H](Cc1c[nH]cn1)C(=O)N[C@H](Cc1c[nH]c2ccccc12)C(=O)N[C@@H](CCCN=C(N)N)C(=O)N[C@@H](Cc1c[nH]c2ccccc12)C(N)=O |
| < 4.00 | 4.93 | < 4.00 | 4.48 |  |  | CC(=O)N[C@@H](Cc1c[nH]cn1)C(=O)N[C@@H](CCc1ccccc1)C(=O)N[C@@H](CCCN=C(N)N)C(=O)N[C@@H](Cc1c[nH]c2ccccc12)C(N)=O |
| 4.61 | 5.01 | < 4.00 | 4.44 |  |  | CC(=O)N[C@@H](Cc1cnc[nH]1)C(=O)N[C@@H](Cc1ccncc1)C(=O)N[C@@H](CCCNC(=N)N)C(=O)N[C@@H](Cc1c[nH]c2ccccc12)C(N)=O |
| < 4.00 | 4.39 | < 4.00 | 4.38 |  |  | CC(=O)N[C@@H](Cc1c[nH]cn1)C(=O)N[C@@H](Cc1c[nH]cn1)C(=O)N[C@@H](CCCN=C(N)N)C(=O)N[C@@H](Cc1c[nH]c2ccccc12)C(N)=O (Ac-HHRW-NH2) |
| 6.52 | 7.29 | 5.39 | 6.45 |  |  | CC(=O)N[C@@H](Cc1cnc[nH]1)C(=O)N[C@H](Cc1cccc2ccccc12)C(=O)N[C@@H](CCCNC(=N)N)C(=O)N[C@@H](Cc1c[nH]c2ccccc12)C(N)=O |
| 4.46 | 4.74 | < 4.00 | 4.48 |  |  | CC(=O)N[C@@H](Cc1cnc[nH]1)C(=O)N[C@@H](Cc1c[nH]c2ccccc12)C(=O)N[C@@H](CCCNC(=N)N)C(=O)N[C@@H](Cc1c[nH]c2ccccc12)C(N)=O |
| 5.75 | 6.58 | 5.00 | 5.63 |  |  | CC(=O)N[C@@H](Cc1c[nH]cn1)C(=O)NC1(C(=O)N[C@@H](CCCN=C(N)N)C(=O)N[C@@H](Cc2c[nH]c3ccccc23)C(N)=O)CCc2ccccc2C1 (stereo in doubt; 25) |

Source: ChEMBL document CHEMBL1135504, “Structure-activity relationships of the melanocortin tetrapeptide Ac-His-DPhe-Arg-Trp-NH(2) at the mouse melanocortin receptors: part 2 modifications at the Phe position” (J Med Chem, 2002)
